The record followed here is patent publication US20230357179A1, “RAF KINASE INHIBITORS AND METHODS OF USE THEREOF” (Deciphera Pharmaceuticals, LLC, priority 2021, published 2023).

One may read the IC50 as the concentration that gives 50% inhibition.

For one test, the target named is T1, C-Raf kinase (Homo sapiens, UniProt P04049, Y340D/Y341D).
T1 construct: Y340D,; GST (N); purchased Sigma
T1 sequence (P04049 307-648 Y340D/Y341D): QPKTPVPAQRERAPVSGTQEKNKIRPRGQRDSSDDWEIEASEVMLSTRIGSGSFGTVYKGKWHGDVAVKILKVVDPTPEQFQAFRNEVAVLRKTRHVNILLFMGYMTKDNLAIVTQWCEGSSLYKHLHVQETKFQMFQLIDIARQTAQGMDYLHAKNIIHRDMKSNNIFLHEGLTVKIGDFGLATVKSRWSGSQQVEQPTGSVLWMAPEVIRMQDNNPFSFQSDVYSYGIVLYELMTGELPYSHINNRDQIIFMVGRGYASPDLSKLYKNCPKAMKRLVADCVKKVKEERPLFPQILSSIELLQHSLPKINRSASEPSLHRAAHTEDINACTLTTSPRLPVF
As to the kind of experiment: Biochemical assay for C-Raf.1 (coupled pyruvate kinase/lactate dehydrogenase). As to conditions: read-out: CRAF.1 IC50. The gist of the method:
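NADH depletion at 340 nm monitored continuously for 6 h at 30° C, with rates taken over 4–5 h. The coupled pyruvate kinase/lactate dehydrogenase reaction used 1 mM ATP, 30.1 nM MEK substrate and 0.43 nM kinase at pH 7.5. IC50 was fitted sigmoidally from percent inhibition of serially diluted compound.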
With `COC(=O)Nc1cc(-c2cccc(-c3cc(NC(=O)NCCC(C)(C)OC)c(F)cc3C)c2)ccn1` [Example 85], the IC50 was not above 100 nM.
Same read-out and setting: for `Cc1cc(F)c(NC(=O)NCCC2(C)CC2)cc1-c1cc(OCCO)nc(-c2ccnc3[nH]ncc23)c1` [Example 87] the value was not above 100 nM; for `Cc1cc(F)c(NC(=O)N[C@@H]2CC[C@H](F)C2)cc1-c1cc(OCCO)nc(-c2ccnc3[nH]ncc23)c1` [Example 88], 100 to 500 nM.
For the molecule `Cc1cc(F)c(NC(=O)NCC[C@@H]2CCO2)cc1-c1cc(OCCO)nc(-c2ccnc3[nH]ncc23)c1` [Example 89], the IC50 is more than 1000 nM.
Still for that read-out and setting: for `COC(C)(C)CCNC(=O)Nc1cc(-c2cc(OCCO)nc(-c3ccnc4[nH]ccc34)c2)c(C)cc1F` [Example 90] the value was not above 100 nM.
The same measure, in the same setting: for `COC(C)(C)CCNC(=O)Nc1cc(-c2cc(OCCO)nc(-c3ccnc4[nH]ncc34)c2)c(C)cc1F` [Example 91] the value was not above 100 nM.
For the molecule `Cc1cc(F)c(NC(=O)N2CCC(C)(C#N)CC2)cc1-c1cc(OCCO)nc(-c2ccnc3[nH]ncc23)c1` [Example 92], the 50% inhibitory concentration (IC50) fell in the range of 100 to 500 nM.

The target of another test is T1, C-Raf kinase. As to the kind of experiment: Biochemical assay for C-Raf.2 (coupled pyruvate kinase/lactate dehydrogenase). The note with it: read-out: CRAF.2 IC50. Here is the method:
Biochemical Assay for C-Raf.2
Activity of C-Raf kinase (SEQ. ID NO: 3) was determined spectroscopically using a coupled pyruvate kinase/lactate dehydrogenase assay that continuously monitors the ATP hydrolysis-dependent oxidation of NADH (e.g., Schindler et al., Science, 2000, 289, 1938-1942). Assays were conducted in 384-well plates (25 μL final volume) using 3.84 nM C-Raf (Eurofins), 1.5 units pyruvate kinase, 2.1 units lactate dehydrogenase, 1 mM phosphoenol pyruvate, 0.7 mM NADH, 50 nM MEK (SignalChem), and 1 mM ATP in assay buffer (100 mM Tris, pH 7.5, 15 mM MgCl2, 0.5 mM DTT, 0.1% octyl-glucoside, 0.002% (w/v) BSA, and 0.002% Triton X-100). Inhibition of C-Raf was measured by adding serial diluted test compound (final assay concentration of 1% DMSO). A decrease in absorption at 340 nm was monitored hourly for 4 h at 30° C. on a multi-mode microplate reader (BioTek). The reaction rate was calculated using the 2 to 3 h time frame. The reaction rate at each concentration of compound was converted to percent inhibition using controls (i.e., reaction with no test compound and reaction with a known inhibitor) and IC50 values were calculated by fitting a four-parameter sigmoidal curve to the data using Prism (GraphPad software).
For the molecule `CNC(=O)c1cc(-c2cc(-c3cc(NC(=O)N4CC[C@H](C(F)(F)F)C4)ccc3C)ccn2)ccn1` [Example 215], the 50% inhibitory concentration (IC50) is not above 100 nM.
On the same count and under the same terms, for `CNC(=O)c1cc(-c2cncc(-c3cc(NC(=O)N4CC[C@H](C(F)(F)F)C4)ccc3C)c2)ncn1` [Example 220] the value was 100 to 500 nM.
On the same count and under the same terms, the result for `COC(=O)Nc1cc(-c2cncc(-c3cc(NC(=O)N4CC[C@H](C(F)(F)F)C4)ccc3C)c2)ncn1` [Example 224] reads not above 100 nM; that for `CNC(=O)c1cc(-c2cc(-c3cc(NC(=O)N4CC[C@H](C(C)C)C4)ccc3C)ccn2)ccn1` [Example 225], 100 to 500 nM.
Still for that read-out and setting: for `CNC(=O)c1cc(-c2cncc(-c3cc(NC(=O)N4CC[C@H](C(C)C)C4)ccc3C)c2)ncn1` [Example 226] the value was 100 to 500 nM; for `Cc1ccc(NC(=O)N2CC[C@H](C)C2)cc1-c1cncc(-c2cc(NC(=O)C3CC3)ncn2)c1` [Example 227], not above 100 nM; for `CNC(=O)c1cc(-c2cncc(-c3cc(NC(=O)N4CC[C@H](C(F)(F)F)C4)ccc3C)c2)ccn1` [Example 228], 100 to 500 nM.
With `CNC(=O)c1cc(-c2cncc(-c3cc(NC(=O)N4CC[C@H](C(C)C)C4)ccc3C)c2)ccn1` [Example 229], the IC50 is not above 100 nM.

The subject of another test is A375 cells. As to the kind of experiment: A375 cell proliferation assay (1), resazurin, 96-well. It counts as cell-based. As to conditions: Homo sapiens, A-375, inhibition of cell proliferation. In outline: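 Viability was read by resazurin fluorescence at 540 nm excitation and 600 nm emission, using a 440 μM solution added for 5–6 h at the end of culture. IC50 came from the curve fit.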
Background: Resazurin is reduced to fluorescent resorufin, in cell work by metabolically active cells.
As to `COC(=O)Nc1cc(-c2cccc(-c3cc(NC(=O)NCCC(C)(C)OC)c(F)cc3C)c2)ccn1` [Example 85], the IC50 was 100 to 500 nM.
Turning to `Cc1cc(F)c(NC(=O)NCCC2(C)CC2)cc1-c1cc(OCCO)nc(-c2ccnc3[nH]ncc23)c1` [Example 87], the IC50 lay in the range of 100 to 500 nM.
As to `Cc1cc(F)c(NC(=O)N[C@@H]2CC[C@H](F)C2)cc1-c1cc(OCCO)nc(-c2ccnc3[nH]ncc23)c1` [Example 88], the IC50 is 1000 to 10000 nM.
On the same count and under the same terms, the result for `Cc1cc(F)c(NC(=O)NCC[C@@H]2CCO2)cc1-c1cc(OCCO)nc(-c2ccnc3[nH]ncc23)c1` [Example 89] reads 1000 to 10000 nM; that for `COC(C)(C)CCNC(=O)Nc1cc(-c2cc(OCCO)nc(-c3ccnc4[nH]ccc34)c2)c(C)cc1F` [Example 90], 1000 to 10000 nM; that for `COC(C)(C)CCNC(=O)Nc1cc(-c2cc(OCCO)nc(-c3ccnc4[nH]ncc34)c2)c(C)cc1F` [Example 91], 500 to 1000 nM.
As to `Cc1cc(F)c(NC(=O)N2CCC(C)(C#N)CC2)cc1-c1cc(OCCO)nc(-c2ccnc3[nH]ncc23)c1` [Example 92], the IC50 was 1000 to 10000 nM.
The same measure, in the same setting: the result for `CNC(=O)c1cc(-c2cc(-c3cc(NC(=O)N4CC[C@H](C(F)(F)F)C4)ccc3C)ccn2)ccn1` [Example 215] reads 1000 to 10000 nM; that for `COC(=O)Nc1cc(-c2cncc(-c3cc(NC(=O)N4CC[C@H](C(F)(F)F)C4)ccc3C)c2)ncn1` [Example 224], 100 to 500 nM.

For a further test, the system named is WM3928 cells. As to the kind of experiment: WM3928 cell proliferation assay (2), resazurin, 384-well. The class given is cell-based. The note with it: inhibition of cell proliferation, 67-72 hours. Here is the method:
WM3928 Cell Proliferation Assay (2)
WM3928 cells (#WM3928-01-0001) are obtained from Rockland Immunochemicals Inc (Gilbertsville, PA). Briefly, cells were grown in MCDB 153 medium (Sigma, #M7403, St. Louis, MO) supplemented with 20% Leibovitz's L-15 (ThermoFisher #11415-064, Waltham, MA), 2% heat inactivated fetal bovine serum (ThermoFisher, #A3840001, Waltham, MA), 5 μg/mL Insulin (Bovine Pancreas) (Sigma, #I0516, St. Louis, MO), 1.68 mM Calcium Chloride (Sigma, #C-34006, St. Louis, MO) and 1% Penicillin/Streptomycin/L-Glutamine (ThermoFisher #10378016, Waltham, MA) at 37° C., 5% CO2, and 95% humidity. Cells are expanded until reaching 70-95% confluency at which point they are sub-cultured or harvested for assay use. Using the Beckman Coulter Echo 650, a serial dilution of test compound is dispensed into a 384-well black clear bottom plate in triplicate. Seven hundred fifty cells are added per well in 50 μL complete growth medium in the 384-well plate. Plates are incubated for 67-72 hours at 37° C., 5% CO2, and 95% humidity. At the end of the incubation, 10 μL of a 440 μM solution of resazurin (Sigma, #199303, St. Louis, MO) in PBS is added to each well of the plate and plates are incubated for an additional 3-6 hours at 37° C., 5% CO2, and 95% humidity. Plates are read on a Synergy2 or equivalent reader (Biotek, Winooski VT) using an excitation of 540 nm and an emission of 600 nm. Data is analyzed using Prism software (GraphPad, San Diego, CA) to calculate IC50 values.
For `CNC(=O)c1cc(-c2cncc(-c3cc(NC(=O)N4CC[C@H](C(F)(F)F)C4)ccc3C)c2)ncn1` [Example 220], the IC50 lay within 500 to 1000 nM.
Still for that read-out and setting: for `CNC(=O)c1cc(-c2cc(-c3cc(NC(=O)N4CC[C@H](C(C)C)C4)ccc3C)ccn2)ccn1` [Example 225] the value was 100 to 500 nM; for `CNC(=O)c1cc(-c2cncc(-c3cc(NC(=O)N4CC[C@H](C(C)C)C4)ccc3C)c2)ncn1` [Example 226], 100 to 500 nM; for `Cc1ccc(NC(=O)N2CC[C@H](C)C2)cc1-c1cncc(-c2cc(NC(=O)C3CC3)ncn2)c1` [Example 227], 100 to 500 nM.
The same measure, in the same setting: the result for `CNC(=O)c1cc(-c2cncc(-c3cc(NC(=O)N4CC[C@H](C(F)(F)F)C4)ccc3C)c2)ccn1` [Example 228] reads 100 to 500 nM.
Same read-out and setting: for `CNC(=O)c1cc(-c2cncc(-c3cc(NC(=O)N4CC[C@H](C(C)C)C4)ccc3C)c2)ccn1` [Example 229] the value was 100 to 500 nM.
